# Reference: publication PMC2994776 (BMC Biochemistry, 2010)
# Ends that are not written are not given here.
# Tests used:
# [1] = test system: B9-23 - reactive T-cell clones; details: type 1 diabetes; cited from earlier work
# DnaK = target: T1, DnaK (Escherichia coli, UniProt P0A6Y8); assay: Fluid phase competition binding assay with acrylodan-labeled NR peptide (a-NR); set-up: species or system bacterial; details: read-out: Apparent dissociation equilibrium constant (K'd)
# T1 construct: made in house
# Procedure: Determination of dissociation equilibrium constants
# Peptide NR was labeled with the environmentally sensitive fluorophore acrylodan as described. […] After reaching equilibrium (~1.5 h), emission spectra were recorded from 400 nm to 600 nm (bandpass 4 nm) with a Perkin-Elmer spectrofluorimeter LS50B equipped with a stirrer and a thermostatically controlled cuvette holder. The excitation wavelength was set at 370 nm (bandpass 4 nm). Measurements were performed in a volume of 800 μl in 25 mM Hepes/KOH, 100 mM KCl, 10 mM MgCl2, pH 7.4 containing 1 mM DTT and 1 mM ADP-Pi at 25°C.
# (1) ΔF=ΔFmaxxP/(P+Kdx(1+L/K'd))
# T1 sequence (P0A6Y8 whole entry): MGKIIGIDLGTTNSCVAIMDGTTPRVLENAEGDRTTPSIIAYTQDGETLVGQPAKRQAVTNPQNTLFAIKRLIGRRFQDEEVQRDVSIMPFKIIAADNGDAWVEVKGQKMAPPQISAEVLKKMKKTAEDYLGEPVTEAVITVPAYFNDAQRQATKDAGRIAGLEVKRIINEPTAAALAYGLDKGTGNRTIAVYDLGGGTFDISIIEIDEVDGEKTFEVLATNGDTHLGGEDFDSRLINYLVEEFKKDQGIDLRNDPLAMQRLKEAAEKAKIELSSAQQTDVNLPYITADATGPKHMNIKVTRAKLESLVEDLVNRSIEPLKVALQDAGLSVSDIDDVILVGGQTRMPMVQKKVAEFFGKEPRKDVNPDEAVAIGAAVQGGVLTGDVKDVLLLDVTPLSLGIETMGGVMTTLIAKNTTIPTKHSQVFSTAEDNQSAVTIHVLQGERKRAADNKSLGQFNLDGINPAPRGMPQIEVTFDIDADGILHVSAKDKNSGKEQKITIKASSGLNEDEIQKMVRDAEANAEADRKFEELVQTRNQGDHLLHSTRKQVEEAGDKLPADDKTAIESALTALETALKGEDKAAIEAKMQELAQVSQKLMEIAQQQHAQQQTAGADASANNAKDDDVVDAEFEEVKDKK
Substance,immunodominance in autoimmune T-cell reactivity (in words) [1],Kd (DnaK) [nM]
"B9-23: insulin peptide identified as an immunodominant epitope of autoimmune T-cell reactivity in type 1 diabetes (SHLVEALYLVCGERG; ends and bridges not checked; UniProt P01308 33-47, looked up, fragment) [Peptide B9-23]",immunodominant epitope of autoimmune T-cell reactivity in type 1 diabetes,–
LVEALYLVCGERG [Peptide B11-23],–,2200 ± 400
SHAMAPVLYLQDK [Control peptide (sigma32 aa192-204)],–,500 ± 100
VCGERGFFYTPKT [Peptide B18-30],–,51900 ± 12800
